Assay results as given in US20260325661A1, “ANTIBODY-CONJUGATED IMMUNO-ACTIVATING SMALL MOLECULE COMPOUND, AND USE” (SHENZHEN CONJUGENIX PHARMACEUTICAL TECHNOLOGY CO., LTD, priority 2023, published 2026).
Like-named read-outs stand apart in the source and are kept apart here.

Tested on: human peripheral blood mononuclear cells (PBMCs)
Experiment: ELISA assay of immunocyte activator: induction of IFN-γ in human PBMCs
Assay type: cell-based
Settings: 24 h, 37 °C, read-out: EC50 IFN-γ ratio (inducing human PBMCs to produce IFN-γ)
Method: The immune activity of each compound is represented by the function of inducing human peripheral blood mononuclear cells (PBMCs) to produce the immune cytokine IFN-γ by, and the EC50 values thereof are shown in Table 3.
• 1) Peripheral blood samples from healthy human volunteer were collected into heparin anticoagulant tubes to reach 5 mL of fresh blood, and PBS was added at a ratio of 1:1 to dilute the blood (2 mL+2 mL in conventional blood collection tubes). • 2) 5 mL of lymphocyte separation medium was put in a 15 mL sterile centrifuge tube for use. • 3) The diluted blood was aspirated and slowly added from 1 cm above the separation medium along the tube wall, so that the diluted blood overlaid the separation medium and formed a distinct interface therewith. • 4) The centrifuge tube was centrifuged at 2000 rpm at room temperature for 20 min. Now five layers formed in the centrifuge tube: the top layer was plasma layer, and the layer between the plasma layer and the lymphocyte separation medium was the lymphocyte layer as a white film. • 5) The mononuclear cell layer as a white film in the middle was aspirated carefully and mononuclear cells were aspirated as many as possible. The mononuclear cells were washed by more than 5 volumes of PBS twice, and each time, the mononuclear cells were centrifuged at 1500 rpm for 10 min. • 6) The supernatant was removed, then 1 mL of 1640 medium was added and mixed uniformly. A small amount of the mixture was taken for cell counting.
The prepared PBMCs were plated in a 96-well plate (Costar, 3894) (2×10^5 cells per well). Each compound in Table 3 was taken and added into the wells with plated cells at ten concentrations with uniform gradient distribution (0.0001-10 μM, diluted with […] medium containing […]).

[1] = Homo sapiens, PBMC, no pretreatment marked
[2] = Homo sapiens, PBMC, Note a: sample pretreated with human liver microsomal enzyme, 2 h

Structure (SMILES) | EC50 [1] | further results
C=C(CN1CCC(n2cc(Cn3c(=O)n(COC(=O)OCCOCCOCCOCCNC(=O)CCC(=O)N4Cc5ccccc5C#Cc5ccccc54)c4c(N)nc(O[C@@H](C)CCC)nc43)nn2)CC1)C(=O)OCC [Compound K55] | – | EC50 (Note a: sample pretreated with human liver microsomal enzyme, 2 h): 21 nM
CCC[C@H](C)Oc1nc(N)c2[nH]c(=O)n(CC3CCN(CCO)CC3)c2n1 [KJ-3b, reference compound] | 210 nM | –
CCCCOc1nc(N)c2c(n1)n(Cc1cn(CCOCCOCCOCCNC(=O)OCc3ccc(NC(=O)[C@H](CCCNC(N)=O)NC(=O)[C@@H](NC(=O)CCCCC(=O)O)C(C)C)cc3)nn1)c(=O)n2C1CCCO1 (stereo partly drawn) [Compound K9] | – | EC50 [2]: 9000 nM
C#Cc1c(F)ccc2cc(O)cc(-c3ncc4c(N5CC6CCC(C5)N6C(=O)OCc5ccc(NC(=O)[C@H](CCCNC(N)=O)NC(=O)[C@@H](NC(=O)C(CCCCc6cn(CCOCCOCCOCCNC(=O)CCN7C(=O)C=CC7=O)nn6)NC(=O)CCC(=O)NCc6ccc(Cn7c(=O)[nH]c8c(N)nc(OCCOC)nc87)cc6)C(C)C)cc5)nc(OC[C@@]56CCCN5C[C@H](F)C6)nc4c3F)c12 (stereo partly drawn) [Compound K32] | 160 nM | –
COCCOc1nc(N)c2[nH]c(=O)n(Cc3ccc(CNC(=O)CCC(=O)O)cc3)c2n1 [SZU-101, reference compound] | – | EC50 (no pretreatment marked): 500 nM
CCCCOc1nc(N)c2[nH]c(=O)n(Cc3cn(CCN)nn3)c2n1 [KJ-032] | 110 nM | –
CCCCOc1nc(N)c2c(n1)c(Cc1ccc3c(c1)CN(C(=O)/C=C/C(=O)c1ccc(OC)cc1)CC3)cn2C(=O)OCc1ccc(NC(=O)[C@H](CCCNC(N)=O)NC(=O)[C@@H](NC(=O)CCOCCOCCOCCOCCN2C(=O)C=CC2=O)C(C)C)cc1 [Compound K13] | – | EC50 (Homo sapiens, PBMC, Note c: sample pretreated with Cathepsin-B (10 μg) in PBS, room temperature, 3 h): 110 nM
CCCCOc1nc(N)c2[nH]c(=O)n(CCCc3cn(CCOCCOCCOCC(=O)OCC)nn3)c2n1 [GY1401] | 2 nM | –
CCC[C@H](C)Oc1nc(N)c2[nH]c(=O)n(Cc3cn(C4CCNCC4)nn3)c2n1 [GY228] | 54 nM | –
C=C(CN1CCC(Cn2c(=O)[nH]c3c(N)nc(OCCCC)nc32)CC1)C(=O)OCC [KJ-098] | 310 nM | –
C=C(CC(=O)O)C(=O)NCc1ccc(Cn2c(=O)[nH]c3c(N)nc(OCCOC)nc32)cc1 [KJ-138] | 50 nM | –
C#Cc1c(F)ccc2cc(O)cc(-c3c(Cl)cc4c(N5CC6CCC(C5)N6C(=O)OCc5ccc(NC(=O)[C@H](CCCNC(N)=O)NC(=O)[C@@H](NC(=O)C(CCCCc6cn(CCOCCOCCOCCNC(=O)CCN7C(=O)C=CC7=O)nn6)NC(=O)CCC(=O)NCc6ccc(Cn7c(=O)[nH]c8c(N)nc(OCCOC)nc87)cc6)C(C)C)cc5)nc(OC[C@@]56CCCN5C[C@H](F)C6)nc4c3F)c12 (stereo partly drawn) [Compound K33] | 180 nM | –
COCCOc1nc(N)c2c(n1)n(Cc1ccc(CNC(=O)CCc3cn(CCOCCOCCOCCNC(=O)OCc4ccc(NC(=O)[C@H](CCCNC(N)=O)NC(=O)[C@@H](NC(=O)CCCCC(=O)O)C(C)C)cc4)nn3)cc1)c(=O)n2C1CCCO1 (stereo partly drawn) [Compound K12] | – | EC50 [2]: 200 nM
COCCOc1nc(N)c2c(n1)n(Cc1ccc(CNC(=O)CCc3cn(CCOCCOCCOCCNC(=O)CCN4C(=O)C=CC4=O)nn3)cc1)c(=O)n2COC(=O)OC(C)C [Compound K16] | – | EC50 (Homo sapiens, PBMC, pH 5, 24 h, Note d: sample pretreated by hydrolysis, acetate buffer pH 5, 37 °C, 72 h): 11 nM
COCCOc1nc(N)c2[nH]c(=O)n(Cc3ccc(CNC(=O)CCC(=O)NC(CCCCc4cn(CCOCCOCCOCCNC(=O)CCN5C(=O)C=CC5=O)nn4)C(=O)NCCOCCOCCOCCNC(=O)OC4CC/C=C/CCC4)cc3)c2n1 (stereo not drawn) [Compound K26] | 2 nM | –
COCCOc1nc(N)c2c(n1)n(Cc1ccc(CNC(=O)CCc3cn(CCOCCOCCOCCNC(=O)OCc4ccc(NC(=O)[C@H](CCCNC(N)=O)NC(=O)[C@@H](NC(=O)CCCCCN5C(=O)C=CC5=O)C(C)C)cc4)nn3)cc1)c(=O)n2C(=O)N1CCN(C)CC1 [Compound K10] | – | EC50 [2]: 210 nM
C=C(CN1CCC(Cn2c(=O)[nH]c3c(N)nc(O[C@@H](C)CCC)nc32)CC1)C(=O)O [KJ-097] | 1 nM | –
CCCCOc1nc(N)c2[nH]c(=O)n(Cc3ccc(NC(=S)Nc4sc5c(c4C(=O)NC(CCCCN=C=S)C(=O)NCCOCCOCCOCCOCCNC(=O)CCC(=O)N4Cc6ccccc6C#Cc6ccccc64)CCCC5)cc3)c2n1 (stereo not drawn) [Compound K47] | 150 nM | –
